Like-named read-outs stand apart in the source and are kept apart here.
What was measured:
[1] = target: T1, triton-extracted alpha-synuclein from PD Tissue (Homo sapiens, UniProt P37840); experiment: Alpha-synuclein tissue homogenate binding assay (Assay 1), displacement of [^3H]-1000; details: for Selectivity ratio (Assay 2/Assay 1): Aβ Tissue Ki / α-synuclein Tissue Ki; for Ki: read-out: α-synuclein Tissue Ki (Assay 1)
T1 construct: tissue Analytic Biological Services Inc; host or cells: human PD temporal cortex grey matter, Triton X-100 insoluble pellet
Protocol: Frozen human brain tissues from PD patients were purchased from Analytic Biological Services Inc. The samples were post-mortem tissues from donors with clinical diagnosis of late stage of PD. Alpha-synuclein, tau and amyloid burden was determined through a combination of immunohistochemistry on frozen thin coronal sections, as well as alpha Lisa-based quantification of protein levels in a detergent insoluble protein fraction. A tissue sample of temporal cortex was identified from one donor as having moderate to high alpha-synuclein burden, low amyloid and minimal to no tau pathology. The detergent insoluble fraction of temporal cortex from this patient was used to support homogenate binding studies. Grey matter was dissected out of the temporal cortex tissue with a dissecting blade and minced with fine dissecting scissors. […] Homogenates were centrifuged at 100,000×g for 45 minutes. The pellet was resuspended in TBS-TX buffer, using a Polytron at highest setting for 30 seconds at 4° C. Homogenates were centrifuged at 100,000×g for 45 minutes and the pellet was resuspended in TBS-TX buffer. A BCA protein assay was performed on the final homogenate to determine the protein concentration. […] For displacement a-synuclein binding assay, compounds and control were solvated in dimethyl sulfoxide (DMSO) and transferred using focused acoustic energy by an Echo 655 liquid handling instrument (Beckman Coulter, Indianapolis, IN) into designated wells of uniquely bar coded 96-well v-bottom low binding polypropylene microplates (Thermo Scientific, 249946). Compound dose response curves were prepared in a 10-point, 3-fold fashion within columns 2-11 of the microplate from high to low compound concentrations. […] Liquid-handling steps for dispensing insoluble fractions of PD brain homogenates and radioligand were performed using a Bravo automated liquid handling platform equipped with a 96LT disposable tip head (Agilent Technologies, Santa Clara. CA). […] The incubation was terminated by rapid filtration through UniFilter-96 GF/C microplates (pre-treated for 30 minutes with 0.2% Polyethylenimine at 4° C.) by using a FilterMate Harvester (PerkinElmer). […] The bottom of each UniFilter-96 GF/C microplate was adhesively sealed (PerkinElmer 6005199) prior to the addition of 50 μL MicroScint-20 liquid scintillation cocktail (PerkinElmer 6013621) to each well. A clear adhesive seal (TopSeal-A PLUS, PerkinElmer 6050185) was then applied to the top of each microplate and counted 1 minute/well on MicroBeta^2 system (PerkinElmer.

[2] = target: aggregated beta amyloid in AD tissue (Homo sapiens, UniProt P05067); experiment: Competitive radioligand binding to pathological aggregated beta amyloid in AD tissue (Assay 2), displacement of [^3H]-105; details: Aβ-rich AD frontal cortex homogenate, [^3H]-105, Kd 11.0 nM
Protocol: Frozen human brain samples of Alzheimer's disease (AD) were purchased from Analytic Biological Services Inc. The samples were post-mortem tissue from donors with clinical diagnosis of AD and much of the white matter was dissected out of the frontal cortex in order to enrich the tissue preparations for gray matter. Brain homogenates of gray matter enriched frontal cortex were prepared by homogenizing the tissue in ice cold Phosphate Buffered Saline (PBS), pH 7.4 at 80 mg wet weight tissue per 1 ml for 45 seconds at 4° C., on setting 16 of Polytron. The homogenate was further diluted with ice cold PBS to 30 mg wet weight tissue per 1 ml and homogenized for an additional minute as described above. Homogenates were aliquoted in 5 ml/tube and stored at −70° C. until use.
Radioligand [^3H]-105, prepared as described in ACS Med. Chem. Lett., Vol. 2, pages 498-502, was used in this assay.
For Assay 2 unlabeled test compounds were dissolved in DMSO at 10 mM. Dilutions of tests compounds to various concentrations were made in 100% DMSO at 1000× final assay concentration and 0.225 μl aliquots were dispensed into assay plates. Brain homogenates were diluted to 0.5 mg/ml from original 30 mg/ml volume in Assay Buffer, and 200 μl were added to the assay plate for a final concentration of 100 ug wet weight/assay well. [^3H]-105 was prepared at 10× final concentration in Assay Buffer plus 20% DMSO and 25 μl was added to the assay plate for final assay concentration of 3.0 nM. The plates were incubated at 37° C. for 90 minutes. Unbound and bound ligand were separated by filtration of bound onto GF/B filter plates (pre-treated for 30 min with 0.1% PEI) using a Packard Filtermate and washing away unbound with 2.5 mil ice cold 5 mM Tris at pH 7.4. Filter plates were dried for 1 hr at 57° C. and 50 μl Microscint was added to each well of the plate. The plates were counted for ^3H cpm for 1 min per well using PerkinElmer TopCount.

[3] = insoluble fraction of PD brain homogenate, [^3H]-1000 3.0 nM, Kd 0.90 nM

Chain of aggregated beta amyloid in AD tissue (P05067 672-711 limits assumed): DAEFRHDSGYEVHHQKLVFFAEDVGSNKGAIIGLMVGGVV

Row | Structure (SMILES) | Selectivity ratio (Assay 2/Assay 1) [1] | Ki [1, 3] [nM] | Ki [2] [nM] | Ki [1] [nM]
1 | COC[C@H]1CN(c2cc(F)ncn2)CCN1c1ncc(/C=C/c2ccc(-n3ccnc3)nc2)cn1 [Example 13, (R,E)-5-(2-(6-(1H-imidazol-1-yl)pyridin-3-yl)vinyl)-2-(4-(6-fluoropyrimidin-4-yl)-2-(methoxymethyl)piperazin-1-yl)pyrimidine] | 12000 | 1 | ≥ 12000 | 
2 | COC[C@H]1CN(c2cc(Cl)ncn2)CCN1c1ncc(/C=C/c2ccc(-n3ccnc3)nc2)cn1 [Example 14, (R,E)-5-(2-(6-(1H-imidazol-1-yl)pyridin-3-yl)vinyl)-2-(4-(6-chloropyrimidin-4-yl)-2-(methoxymethyl)piperazin-1-yl)pyrimidine] | 9231 | 1.3 | ≥ 12000 | 
3 | OC[C@H]1CN(c2cc(F)ncn2)CCN1c1ncc(/C=C/c2ccc(-n3ccnc3)nc2)cn1 [Example 15, (R,E)-(1-(5-(2-(6-(1H-imidazol-1-yl)pyridin-3-yl)vinyl)pyrimidin-2-yl)-4-(6-fluoropyrimidin-4-yl)piperazin-2-yl)methanol] | 12000 | 1 | ≥ 12000 | 
4 | COC[C@H]1CN(c2cc(F)ccn2)CCN1c1ncc(/C=C/c2ccc(N3CCOCC3)nc2)cn1 [Example 16, (R,E)-4-(5-(2-(2-(4-(4-fluoropyridin-2-yl)-2-(methoxymethyl)piperazin-1-yl)pyrimidin-5-yl)vinyl)pyridin-2-yl)morpholine] | 281 | 1.6 | 450 | 
5 | COC[C@H]1CN(c2cc(F)ccn2)CCN1c1ncc(/C=C/c2ccc(-n3ccnc3)nc2)cn1 [Example 17, (R,E)-5-(2-(6-(1H-imidazol-1-yl)pyridin-3-yl)vinyl)-2-(4-(4-fluoropyridin-2-yl)-2-(methoxymethyl)piperazin-1-yl)pyrimidine] | 13333 |  | ≥ 12000 | 
6 | COC[C@H]1CN(c2ccccn2)CCN1c1ncc(/C=C/c2ccc(-n3ccnc3)nc2)cn1 [Example 18, (R,E)-5-(2-(6-(1H-imidazol-1-yl)pyridin-3-yl)vinyl)-2-(2-(methoxymethyl)-4-(pyridin-2-yl)piperazin-1-yl)pyrimidine] | 24000 | 0.5 | ≥ 12000 | 
7 | COC[C@H]1CN(c2ccccn2)CCN1c1ncc(/C=C/c2cnc3nc(C)cn3c2)cn1 [Example 19, (R,E)-6-(2-(2-(2-(methoxymethyl)-4-(pyridin-2-yl)piperazin-1-yl)pyrimidin-5-yl)vinyl)-2-methylimidazo[1,2-a]pyrimidine] | 8571 | 1.4 | ≥ 12000 | 
8 | COC[C@H]1CN(c2ccccn2)CCN1c1ncc(/C=C/c2ccc(-c3ncco3)nc2)cn1 [Example 20, (R,E)-2-(5-(2-(2-(2-(methoxymethyl)-4-(pyridin-2-yl)piperazin-1-yl)pyrimidin-5-yl)vinyl)pyridin-2-yl)oxazole] | 7059 | 1.7 | ≥ 12000 | 
9 | COC[C@H]1CN(c2cc3cnccn3c2)CCN1c1ncc(/C=C/c2ccc(-n3cccn3)nc2)cn1 [Example 21, (R,E)-7-(4-(5-(2-(6-(1H-pyrazol-1-yl)pyridin-3-yl)vinyl)pyrimidin-2-yl)-3-(methoxymethyl)piperazin-1-yl)pyrrolo[1,2-a]pyrazine] | 10000 |  | 13000 | 1.3
10 | COC[C@H]1CN(c2ncc(/C=C/c3ccc(-n4ccnc4)nc3)cn2)CCN1c1ccccn1 [Example 22, (R,E)-5-(2-(6-(1H-imidazol-1-yl)pyridin-3-yl)vinyl)-2-(3-(methoxymethyl)-4-(pyridin-2-yl)piperazin-1-yl)pyrimidine] | 1857 | 0.7 | 1300 | 
11 | OC[C@H]1CN(c2cnccn2)CCN1c1ncc(/C=C/c2ccc(-n3ccnc3)nc2)cn1 [Example 23, (R,E)-(1-(5-(2-(6-(1H-imidazol-1-yl)pyridin-3-yl)vinyl)pyrimidin-2-yl)-4-(pyrazin-2-yl)piperazin-2-yl)methanol] | 10000 |  | ≥ 12000 | 1.2
12 | OC[C@H]1CN(c2ccncn2)CCN1c1ncc(/C=C/c2ccc(-n3ccnc3)nc2)cn1 [Example 24, (R,E)-(1-(5-(2-(6-(1H-imidazol-1-yl)pyridin-3-yl)vinyl)pyrimidin-2-yl)-4-(pyrimidin-4-yl)piperazin-2-yl)methanol] | 240 | 0.5 | 120 | 
13 | COC[C@H]1CN(c2ncc(C)cn2)CCN1c1ncc(/C=C/c2ccc(-n3ccnc3)nc2)cn1 [Example 25, (R,E)-5-(2-(6-(1H-imidazol-1-yl)pyridin-3-yl)vinyl)-2-(2-(methoxymethyl)-4-(5-methylpyrimidin-2-yl)piperazin-1-yl)pyrimidine] | 400 | 0.9 | 360 | 
14 | COC[C@H]1CN(c2ccccn2)CCN1c1ncc(/C=C/c2ccc(-c3cnco3)nc2)cn1 [Example 26, (R,E)-5-(5-(2-(2-(2-(methoxymethyl)-4-(pyridin-2-yl)piperazin-1-yl)pyrimidin-5-yl)vinyl)pyridin-2-yl)oxazole] | 3871 | 3.1 | ≥ 12000 | 
15 | COC[C@H]1CN(c2ncc(/C=C/c3ccc(-n4ccnc4)nc3)cn2)CCN1c1ncc(F)cn1 [Example 27, (R,E)-5-(2-(6-(1H-imidazol-1-yl)pyridin-3-yl)vinyl)-2-(4-(5-fluoropyrimidin-2-yl)-3-(methoxymethyl)piperazin-1-yl)pyrimidine] | 44 | 1.8 | 80 | 
16 | COC[C@H]1CN(c2ccnc(F)c2)CCN1c1ncc(/C=C/c2ccc(-n3ccnc3)nc2)cn1 [Example 29, (R,E)-5-(2-(6-(1H-imidazol-1-yl)pyridin-3-yl)vinyl)-2-(4-(2-fluoropyridin-4-yl)-2-(methoxymethyl)piperazin-1-yl)pyrimidine] | 180 | 1 | 180 | 
17 | FCCOC[C@H]1CN(c2ncccn2)CCN1c1ncc(/C=C/c2ccc(-n3ccnc3)nc2)cn1 [Example 30, (R,E)-5-(2-(6-(1H-imidazol-1-yl)pyridin-3-yl)vinyl)-2-(2-((2-fluoroethoxy)methyl)-4-(pyrimidin-2-yl)piperazin-1-yl)pyrimidine] | 12000 | 1 | ≥ 12000 | 
18 | FCCOC[C@H]1CN(c2ccncc2)CCN1c1ncc(/C=C/c2ccc(-n3ccnc3)nc2)cn1 [Example 31, (R,E)-5-(2-(6-(1H-imidazol-1-yl)pyridin-3-yl)vinyl)-2-(2-((2-fluoroethoxy)methyl)-4-(pyridin-4-yl)piperazin-1-yl)pyrimidine] | 2600 | 0.5 | 1300 | 
19 | COC[C@H]1CN(c2ccc(F)nc2)CCN1c1ncc(/C=C/c2ccc(-n3ccnc3)nc2)cn1 [Example 32, (R,E)-5-(2-(6-(1H-imidazol-1-yl)pyridin-3-yl)vinyl)-2-(4-(6-fluoropyridin-3-yl)-2-(methoxymethyl)piperazin-1-yl)pyrimidine] | 13333 | 0.9 | ≥ 12000 | 
20 | OC[C@H]1CN(c2ccc(F)nc2)CCN1c1ncc(/C=C/c2ccc(-n3ccnc3)nc2)cn1 [Example 33, (R,E)-(1-(5-(2-(6-(1H-imidazol-1-yl)pyridin-3-yl)vinyl)pyrimidin-2-yl)-4-(6-fluoropyridin-3-yl)piperazin-2-yl)methanol] | 6667 |  | ≥ 12000 | 1.8
21 | COC[C@H]1CN(c2ncc(/C=C/c3ccc(-n4ccnc4)nc3)cn2)CCN1c1ccnc(F)n1 [Example 34, (R,E)-4-(4-(5-(2-(6-(1H-imidazol-1-yl)pyridin-3-yl)vinyl)pyrimidin-2-yl)-2-(methoxymethyl)piperazin-1-yl)-2-fluoropyrimidine] | 6667 | 1.8 | ≥ 12000 | 
22 | FCCOC[C@H]1CN(c2ncc(/C=C/c3ccc(-c4cnco4)nc3)cn2)CCN1c1ncccn1 [Example 36, (R,E)-5-(5-(2-(2-(3-((2-fluoroethoxy)methyl)-4-(pyrimidin-2-yl)piperazin-1-yl)pyrimidin-5-yl)vinyl)pyridin-2-yl)oxazole] | 12000 | 0.94 | ≥ 12000 | 
